Laboratory results as given in patent publication US4238472A, “Radioimmunoassay for chlorinated dibenzo-p-dioxins” (priority 1978, dated 1980).

Experiments:
[1] = in vivo; cited from earlier work
antiserum F-12 = test: Specificity / cross reactivity of the radioimmunoassay, antiserum F-12; assay type: binding, rabbit; details: for Percentage Reactivity (inhibition of 125I binding relative to inhibition by 5 ng of 2,3,7,8-TCDD): "Cutscum"
Description: (§1) Since TCDD itself has no chemically reactive functional groups, a derivative was synthesized that retained most of the structural features of TCDD but with the addition of a reactive site. This derivative was coupled to an immunogenic protein carrier, such as bovine serum albumin, rabbit serum albumin, etc., so that animals would respond to it by producing an antiserum containing antibodies. A second compound was synthesized, still structurally similar to TCDD so that it would bind to the antibodies, but capable of being labeled with ^125 I for detectability at the picogram level. An amount of antiserum capable of binding about 20 pg of ^125 I-labeled dioxin derivative (hapten) is preincubated with the detergent emulsion of the sample extract (possibly containing TCDD). Then the mixture is incubated with the ^125 I-labeled derivative long enough for equilibrium binding to occur and form the hapten-antibody complex. A second antibody, namely, goat antibodies against rabbit gamma-globulin (i.e., goat anti-rabbit γ-globulin) are then added to precipitate the antibody ^125 I-labeled dioxin complex, and the amount of ^125 I in the precipitate is determined. The extent to which preincubation with the test material inhibits or decreases the amount of ^125 I precipitated relative to the amount precipitated in the absence of test material is a measure of the amount of chlorodibenzodioxin in the test sample.
(§2) Radioimmunoassay of small molecules requires some means of separating free hapten from antibody-bound hapten. The procedure used in the present invention, chosen because of its compatibility with detergent-solubilized hapten, involved precipitating the antibody-hapten complex with a second antibody, namely, goat antibodies against rabbit gamma-globulin. In this assay chlorodibenzodioxin from the environmental sample completes with the ^125 I-labeled hapten for binding to the antibody. Thus, the decrease in precipitation of radioactivity is a measure of the amount of (unlabeled) hapten in the test sample.
(§3) The assay buffer (hereinafter referred to as "PBS") contained, per liter, 20 mmol of potassium phosphate, 140 mmol of NaCl, and 200 mg of sodium azide. The pH was adjusted to 7.3 with NaOH. Antiserum was diluted with PBS also containing 0.1% bovine gamma globulin and 0.02% rabbit gamma globulin (w/v). Each assay tube from procedure G above received 0.2 ml of PBS, after which the tubes were held in the sonicator for 40 minutes and then cooled to room temperature. Appropriately diluted antiserum or, as control, antiserum diluant was added (0.2 ml) and, after vortex-mixing, the tubes were incubated for 40 minutes at 37°. 14000 disintegrations per minute (hereafter referred to as "DPM") or 7000 counts per minute (hereinafter referred to as "CPM", which equals DPM×counting efficiency) of [^125 I]-iodovaleramide derivative of trichlorodibenzo-p-dioxin in PBS containing 1% "Cutscum" were then added to each tube (approximately 10 μl), vortex mixed, and the tubes incubated for 1 hour at 37° followed by an additional 65 hours of incubation at 4°. Each tube next received 1.24 units of goat anti-rabbit gamma globulin in 0.2 ml of PBS containing 0.05 mM ethylenediamine tetracetic acid (hereinafter referred to as "EDTA"), was vortex mixed, and incubated for 5 hours at 4°. The tubes were centrifuged at 500×g for 20 minutes at 4°. The supernates were poured off and the tubes allowed to drain into Whatman #3 MM paper for 10 minutes. The precipitate or pellets obtained were then radioassayed for ^125 I, with 10 minute count cycles.
(§4) Standard curves were prepared using sequential two-fold dilutions of TCDD or other test compounds in benzene and evaporating the solvent as described above. Both control (blank) and TCDD-spiked tissues were extracted and processed as described above to determine general interference and recoveries. All samples were run in triplicate. […]

[2] = system: anti-chlorinated dibenzodioxin serum (antisera GC-5 and F-12); test: Double-antibody radioimmunoassay, both antisera (general cross reactivity, interference and sensitivity); assay type: binding, rabbit; details: for cross reactivity of the three dichlorodibenzo-p-dioxins: 5 ng level; for activity v concentration curve slope: both antisera
Description: as §1, §2, §3, §4

antiserum GC-5 = test: Cross reactivity in chlorinated DBD radioimmunoassay, antiserum GC-5; assay type: binding, rabbit; details: for maximum inhibition of binding of 125I-labeled hapten: GC-5 diluted such that 33% of the label was bound in the absence of competitors
Description: as §1, §2, §3, §4

| SMILES | Cross Reactivity, Antiserum GC-5: 100 × (inhibition of 125I binding by 4 pmole of test compound)/(inhibition by 4 pmole of 2,3,7,8-TCDD) (antiserum GC-5) | Cross Reactivity, Antiserum F-12: 100 × (inhibition of 125I binding by 4 pmole of test compound)/(inhibition by 4 pmole of 2,3,7,8-TCDD) (antiserum F-12) | further results |
| --- | --- | --- | --- |
| Clc1cc2c(c(Cl)c1Cl)Oc1c(cc(Cl)c(Cl)c1Cl)O2 [1,2,3,7,8,9-hexachlorodibenzo-p-dioxin] | – | – | toxicity relative to TCDD [1]: toxicities comparable to that of TCDD; effective competition in the assay (predicted) (antiserum F-12; if available for testing): effective competitor |
| ClC(Cl)=C(c1ccc(Cl)cc1)c1ccc(Cl)cc1 [DDE] | – | – | Percentage Reactivity (inhibition of 125I binding relative to inhibition by 5 ng of 2,3,7,8-TCDD) (antiserum F-12; highest amount tested 400 ng): 0% |
| Oc1c(Cl)c(Cl)c(Cl)c(Cl)c1Cl [Pentachlorophenol] | – | – | Percentage Reactivity (inhibition of 125I binding relative to inhibition by 5 ng of 2,3,7,8-TCDD) (antiserum F-12; highest amount tested 10 μg): 0% |
| c1ccc2c(c1)Oc1ccccc1O2 [Unchlorinated Dibenzo-p-Dioxin, Unchlorinated dibenzo-p-dioxin] | 4% | < 1% | cross reactivity in words ([2]; either antiserum): very little cross relativity |
| Clc1c(Cl)c(Cl)c2c(c1Cl)Oc1ccccc1O2 [1,2,3,4-Cl4 Dibenzo-p-Dioxin, 1,2,3,4-tetrachloro DBD] | 20% | < 1% | maximum inhibition of binding of 125I-labeled hapten (antiserum GC-5): up to 18% |
| Clc1ccc2c(c1)Oc1cc(Cl)c(Cl)cc1O2 [2,3,7-Cl3 Dibenzo-p-Dioxin] | 73% | 77% | – |
| Clc1cc2c(c(Cl)c1Cl)Oc1cc(Cl)c(Cl)c(Cl)c1O2 [1,2,3,6,7,8-Cl6 Dibenzo-p-Dioxin] | 99% | 9% | toxicity relative to TCDD [1]: toxicities comparable to that of TCDD |
| c1ccc2c(c1)oc1ccccc12 [Unchlorinated Dibenzofuran] | 2.5% | < 1% | – |
| Clc1ccc2oc3cc(Cl)c(Cl)cc3c2c1 [2,3,8-Cl3 Dibenzofuran] | 2% | – | – |
| CCCCCCCC/C=C\CCCCCCCC(=O)O[C@H]1CC[C@@]2(C)C(=CC[C@H]3[C@@H]4CC[C@H]([C@H](C)CCCC(C)C)[C@@]4(C)CC[C@@H]32)C1 [Cholesterol Oleate] | – | – | Percentage Reactivity (inhibition of 125I binding relative to inhibition by 5 ng of 2,3,7,8-TCDD) (antiserum F-12; highest amount tested 100 μg): 0% |
| Clc1cc2c(cc1Cl)Oc1ccccc1O2 [2,3-Cl2 Dibenzo-p-Dioxin, 2,3-dichloro DBD] | 44% | 16% | cross reactivity of the three dichlorodibenzo-p-dioxins [2]: very similar in their cross reactivity; activity v concentration curve slope [2]: steepest sloop; binding by the antibodies in GC-5 (antiserum GC-5): only a portion bind 2,3-dichloro DBD; maximum inhibition of binding of 125I-labeled hapten (antiserum GC-5): 55% |
| Clc1ccc(Oc2ccc(Cl)c(Cl)c2)cc1Cl [3,4,3',4'-TCBPE] | – | – | Percentage Reactivity (inhibition of 125I binding relative to inhibition by 5 ng of 2,3,7,8-TCDD) (antiserum F-12; highest amount tested 200 ng): 0.1% |
| CC(=O)Oc1c(C)c(C)c2c(c1C)CCC(C)(CCCC(C)CCCC(C)CCCC(C)C)O2 (stereo not drawn) [α-Tocopherol Acetate] | – | – | Percentage Reactivity (inhibition of 125I binding relative to inhibition by 5 ng of 2,3,7,8-TCDD) (antiserum F-12; highest amount tested 200 ng): 0% |
| Clc1ccc2oc3ccc(Cl)cc3c2c1 [2,8-Cl2 Dibenzofuran] | 12% | – | – |
| Clc1c(Cl)c(Cl)c2c(oc3c(Cl)c(Cl)c(Cl)c(Cl)c32)c1Cl [Octachloro Dibenzofuran] | 14% | 8% | – |
| Brc1cc2oc3cc(Br)c(Br)cc3c2cc1Br [2,3,7,8-Br4 Dibenzofuran] | – | 46% | – |
| Clc1c(Cl)c(Cl)c2c(c1Cl)Oc1c(Cl)c(Cl)c(Cl)c(Cl)c1O2 [Octachloro Dibenzo-p-Dioxin] | 100% | 8% | – |

| SMILES | Cross Reactivity, Antiserum GC-5: 100 × (inhibition of 125I binding by 4 pmole of test compound)/(inhibition by 4 pmole of 2,3,7,8-TCDD) (antiserum GC-5) | Cross Reactivity, Antiserum F-12: 100 × (inhibition of 125I binding by 4 pmole of test compound)/(inhibition by 4 pmole of 2,3,7,8-TCDD) (antiserum F-12) | further results |
| --- | --- | --- | --- |
| Clc1cc(-c2cc(Cl)c(Cl)c(Cl)c2)cc(Cl)c1Cl [3,4,5,3',4',5'-HCBP] | – | – | Percentage Reactivity (inhibition of 125I binding relative to inhibition by 5 ng of 2,3,7,8-TCDD) (antiserum F-12; highest amount tested 100 ng): 0% |
| O=C1OC2(c3cc(Cl)c(O)cc3Oc3cc(O)c(Cl)cc32)c2ccccc21 [2,7-Dichlorofluorescein] | – | – | Percentage Reactivity (inhibition of 125I binding relative to inhibition by 5 ng of 2,3,7,8-TCDD) (antiserum F-12; highest amount tested 200 ng): 0% |
| O=C1c2ccccc2-c2ccccc21 [9-Fluorenone] | – | – | Percentage Reactivity (inhibition of 125I binding relative to inhibition by 5 ng of 2,3,7,8-TCDD) (antiserum F-12; highest amount tested 100 ng): 0% |
| Clc1cc(Cl)c2oc3cc(Cl)c(Cl)cc3c2c1 [2,3,6,8-Cl4 Dibenzofuran] | 6% | 40% | – |
| O=C(O)COc1cc(Cl)c(Cl)cc1Cl [2,4,5-T (Commercial), 2,4,5-trichlorophenoxyacetic acid] | – | – | Percentage Reactivity (inhibition of 125I binding relative to inhibition by 5 ng of 2,3,7,8-TCDD) (antiserum F-12; highest amount tested 10 μg): 37% |
| c1ccc2cc3ccccc3cc2c1 [Anthracene] | – | – | Percentage Reactivity (inhibition of 125I binding relative to inhibition by 5 ng of 2,3,7,8-TCDD) (antiserum F-12; highest amount tested 100 ng): 0% |
| Clc1ccc2c(c1)Oc1cc(Cl)ccc1O2 [2,8-Cl2 Dibenzo-p-Dioxin] | 52% | 17% | cross reactivity of the three dichlorodibenzo-p-dioxins [2]: very similar in their cross reactivity; activity v concentration curve slope [2]: most shallow slope |
| Clc1cc(Cl)cc(-c2cc(Cl)cc(Cl)c2)c1 [3,5,3',5'-TCBP] | – | – | Percentage Reactivity (inhibition of 125I binding relative to inhibition by 5 ng of 2,3,7,8-TCDD) (antiserum F-12; highest amount tested 100 ng): 0% |
| Clc1cccc(Cl)c1-c1c(Cl)cccc1Cl [2,6,2',6'-TCBP] | – | – | Percentage Reactivity (inhibition of 125I binding relative to inhibition by 5 ng of 2,3,7,8-TCDD) (antiserum F-12; highest amount tested 200 ng): 0% |
| Clc1cc2c(cc1Cl)Oc1c(Cl)c(Cl)c(Cl)c(Cl)c1O2 [1,2,3,4,7,8-Cl6 Dibenzo-p-Dioxin] | 99% | 9% | – |
| Clc1ccc2c(c1)Oc1ccc(Cl)cc1O2 [2,7-Cl2 Dibenzo-p-Dioxin] | 56% | 20% | cross reactivity of the three dichlorodibenzo-p-dioxins [2]: very similar in their cross reactivity |
| Clc1cc2c(cc1Cl)Oc1c(Cl)c(Cl)cc(Cl)c1O2 [1,2,4,7,8-Cl5 Dibenzo-p-Dioxin] | 76% | 36% | – |
| CCCCC(CC)COC(=O)c1c(Cl)c(Cl)c(Cl)c(Cl)c1C(=O)OCC(CC)CCCC (stereo not drawn) [Tetrachloro DEHP] | – | – | Percentage Reactivity (inhibition of 125I binding relative to inhibition by 5 ng of 2,3,7,8-TCDD) (antiserum F-12; highest amount tested 200 ng): 0.1% |
| Clc1cc(Cl)c(-c2cc(Cl)c(Cl)cc2Cl)cc1Cl [2,4,5,2',4',5'-HCBP] | – | – | Percentage Reactivity (inhibition of 125I binding relative to inhibition by 5 ng of 2,3,7,8-TCDD) (antiserum F-12; highest amount tested 100 ng): 0% |
| CCCCC(CC)COC(=O)c1ccccc1C(=O)OCC(CC)CCCC (stereo not drawn) [DEHP, di(2-ethylhexyl) phthalate] | – | – | Percentage Reactivity (inhibition of 125I binding relative to inhibition by 5 ng of 2,3,7,8-TCDD) (antiserum F-12; highest amount tested 100 μg): 0% |
| Clc1ccc(-c2ccc(Cl)c(Cl)c2)cc1Cl [3,4,3',4'-TCBP, 3,4,3'4'-tetrachlorobiphenyl] | – | – | Percentage Reactivity (inhibition of 125I binding relative to inhibition by 5 ng of 2,3,7,8-TCDD) (antiserum F-12; highest amount tested 5 ng): 6% |
